Laboratory results as given in patent US20200360331A1, “COMPOSITIONS COMPRISING 15-HEPE AND/OR 15-HETrE AND METHODS OF TREATING OR PREVENTING CARDIOMETABOLIC DISEASE, METABOLIC SYNDROME, AND/OR RELATED DISEASES” (Afimmune Limited, priority 2019, published 2020).

Columns and labels:
[1] = tested on: TβR-I (type I TGF-β receptor); test: Sucrose density gradient analysis in Mv1Lu cells, TβR-I; format: cell-based, mink
Procedure: Sucrose gradient ultracentrifugation and confocal microscopy were used to identify 15-HEPE induced microdomain translocation of TGF-β receptors by sucrose. Sucrose density gradient analysis of TGF-β receptors was conducted in the plasma membranes of Mv1Lu cells (mink lung epithelial cell) treated with 100 μM of 15-HEPE and an equal volume of DMSO (dimethyl sulfoxide) at 37° C. for 0, 1, 4, and 24 hours, and the cell lysates from these treated cells were subjected to sucrose density gradient ultracentrifugation. The sucrose gradient fractions were then analyzed by Western blot analysis using anti-TβR-I (type I TGF-β receptor), anti-TβR-II (type II TGF-β receptor), anti-TβR-III (type III TGF-β receptor, betaglycan), anti-EGFR (epidermal growth factor receptor), and anti-caveolin-1 antibodies. The lipid raft/caveolae, and non-lipid raft microdomain localization of TβR-I, TβR-II, TβR-III, EGFR and caveolin-1 in the plasma membrane of untreated cells or cells treated with 15-HEPE were assessed to determine the effects of 15-HEPE on the membrane microdomain localization of the TGF-β receptors. […]

NAFLD patients [2] = test: Phase IIa NAFLD study: metabolic parameters and insulin resistance; format: in vivo, human
Procedure: (§1) The study was planned to include 96 evaluable patients with 32 patients randomized per treatment group.
HOMA-IR/Adipo-IR: HOMA-IR/Adipo-IR levels are a method of measuring insulin resistance. HOMA-IR is calculated by multiplying fasting plasma insulin (FPI) by fasting plasma glucose (FPG), then dividing by the constant 405. Adipo-IR is calculated by multiplying fasting non-esterified fatty acids (NEFA)×fasting insulin. Blood samples were taken to assess HOMA-IR and Adipo-IR at Visit 2/Baseline, Visit 3/Week 2, Visit 4/Week 4, Visit 6/Week 8, Visit 8/Week 12, Visit 10/Week16 and Follow up Visit 11/Week 20. All subjects were required to have been fasted for a minimum of 8 hours prior to blood sampling. If subjects had not fasted for a minimum of 8 hours, the duration of fasting time was recorded, and subjects encouraged to fast appropriately for the next clinical visit.
Exploratory analysis: The exploratory analysis included analysis of lipid and metabolic parameters including total cholesterol, triglycerides, very low-density lipoprotein cholesterol (VLDL-C), low density lipoprotein cholesterol (LDL-C), high density lipoprotein cholesterol (HDL-C), non-high-density lipoprotein cholesterol (non-HDL-C), remnant-like particle cholesterol (RLP-C), fasting glucose, insulin, free fatty acids and hemoglobin A1C (HbA1C). Additional exploratory analysis included high throughput lipidomics and proteomics.

NAFLD patients [3] = test: Phase IIa NAFLD study: hepatic fat by CAP; format: in vivo, human; settings: patients diagnosed with NAFLD
Procedure: The study was planned to include 96 evaluable patients with 32 patients randomized per treatment group. […] Liver stiffness and CAP: Liver stiffness and CAP were assessed using transient elastography (e.g., FibroScan® 502 Touch model or equivalent). Patients were fasted and scanned at the same time of the day, if possible, for baseline (Week 0) and Visit 10 (Week 16). For this assessment the following conditions were met: patients were lying in dorsal decubitus position with the right arm in maximal abduction behind the head, in a similar position to that used for liver biopsy (LB); the tip of the transducer was placed on the skin between the ribs over the right lobe of the liver (the physician took the measurements with the probe placed in the intercostal space); during the FibroScan® examination the choice of M+ or XL+ probe was determined by the Automatic Probe Selection tool (APS) (If, the APS tool advises to use the “XL+ probe” or “switch” continuously between “M+ and XL+ probe”, only the XL+ probe was used); and the operator, assisted by an ultrasonic time motion image, located a portion of the liver which is free of large vascular structures (the depth of measurement was between 35-75 mm for the XL+ probe and 25-65 mm for the M+ probe and the explored volume will be 3 cm^3). […] The final stiffness and CAP values was recorded as median values of valid measurements.

NAFLD patients [4] = test: Phase IIa NAFLD study: alkaline phosphate (ALP); format: in vivo, human; settings: 2 g
Procedure: as §1
Clinical Laboratory Safety Tests: Safety tests were performed for hematology, serum biochemistry, coagulation, lipid profile, and urinalysis: Blood and urine samples were taken as per the Study Flow Chart in Table 19 for routine hematology, serum biochemistry, coagulation and urinalysis tests, along with a Lipid Profile. All samples were analyzed in the central laboratory. All subjects were fasted for a minimum of 8 hours prior to blood sampling. […]

[5] = NAFLD patients, 1 g or 2 g per day
[6] = baseline to Week 16, 1 g or 2 g per day vs placebo

With CC/C=C\CC(O)/C=C/C=C\C/C=C\C/C=C\CCCC(=O)O (stereo not shown) [DS102, 15-hydroxy-eicosa-5Z,8Z,11Z,13E,17Z-pentaenoic acid] the “abundance of TβR-I proteins” value ([1]; 100 μM, 0, 1, 4 and 24 hours) was “did not affect the abundance of TβR-I proteins”, the “translocation of TβR-I to lipid-raft” value ([1]; 100 μM, 24 hours) was “induced translocation of TβR-I to lipid-raft” and the “insulin sensitivity and glycemic control” value (NAFLD patients [2]; [5]) was “improvement”. The “markers of metabolic overload” value (NAFLD patients [2]; [5]) was “statistically significant reduction”, the “insulin resistance indices (HOMA-IR and adipo-IR levels)” value (NAFLD patients [2]; Week 16, 1 g or 2 g per day vs placebo) was “reduction in HOMA-IR and adipo-IR levels” and the “insulin resistance indices (HOMA-IR and adipo-IR levels)” value (NAFLD patients [2]; Week 16, 2 g, Per Protocol Set (PPS)) was “significant improvements”. For the same molecule, the “HbA1c levels, glycemic control” value (NAFLD patients [2]; [6]) was “clinically significant improvements”, the “insulin, glucose, and free fatty acid levels” value (NAFLD patients [2]; [6]) was “reduction” and the “hepatic fat content as assessed by CAP” value (NAFLD patients [3]) was “reduced”. The “alkaline phosphate (ALP)” value (NAFLD patients [4]) was “reduced”.
